Molecular target: T1, Cholecystokinin receptor type A (Cavia porcellus, UniProt Q63931)
T1 sequence (Q63931 whole entry): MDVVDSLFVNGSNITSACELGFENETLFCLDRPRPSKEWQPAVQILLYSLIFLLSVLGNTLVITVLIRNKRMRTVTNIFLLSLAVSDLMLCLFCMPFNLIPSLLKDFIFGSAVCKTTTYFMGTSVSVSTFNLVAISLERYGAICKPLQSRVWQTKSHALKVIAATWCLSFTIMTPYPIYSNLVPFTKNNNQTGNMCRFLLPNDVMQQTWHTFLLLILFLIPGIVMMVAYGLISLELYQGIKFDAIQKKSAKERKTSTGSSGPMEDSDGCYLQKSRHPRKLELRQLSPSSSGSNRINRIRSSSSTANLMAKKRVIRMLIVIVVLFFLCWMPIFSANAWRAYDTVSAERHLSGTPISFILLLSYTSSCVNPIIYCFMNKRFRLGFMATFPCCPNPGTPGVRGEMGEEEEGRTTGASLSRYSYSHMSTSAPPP
Experiment: Binding activity towards cholecystokinin-A (CCK-A) receptor in guinea pig pancreas

| Compound | IC50 |
| --- | --- |
| Cc1ccc2c(c1)N(CC(=O)NC(C)(C)C)C(=O)[C@H](NC(=O)Nc1cccc(C(=O)NS(=O)(=O)c3ccccc3C)c1)C[C@@H]2c1ccccc1 | 1300 nM |
| Cc1ccc2c(c1)N(CC(=O)NC(C)(C)C)C(=O)[C@H](NC(=O)Nc1cccc(-c3nnn[nH]3)c1)C[C@@H]2Cc1ccccc1 | 34 nM |
| Cc1ccc2c(c1)N(CC(=O)NC(C)(C)C)C(=O)[C@H](NC(=O)Nc1cccc(C(=O)O)c1)C[C@@H]2c1ccccc1 | 4200 nM |
| Cc1ccc2c(c1)N(CC(=O)NC(C)(C)C)C(=O)[C@H](NC(=O)Nc1cccc(C(=O)NS(C)(=O)=O)c1)C[C@@H]2C1CCCCC1 | 520 nM |
| Cc1ccc2c(c1)N(CC(=O)NC(C)(C)C)C(=O)[C@H](NC(=O)Nc1cccc(C(=O)Nc3nnn[nH]3)c1)C[C@@H]2c1ccccc1 | 1000 nM |
| Cc1ccc2c(c1)N(CC(=O)NC(C)(C)C)C(=O)[C@H](NC(=O)Nc1cccc(C(=O)NS(C)(=O)=O)c1)C[C@@H]2c1ccccc1 | 970 nM |
| COC(=O)c1cccc(NC(=O)N[C@@H]2C[C@H](C3CCCCC3)c3ccc(C)cc3N(CC(=O)NC(C)(C)C)C2=O)c1 | 370 nM |
| Cc1ccc2c(c1)N(CC(=O)NC(C)(C)C)C(=O)[C@H](NC(=O)Nc1cccc(-c3nnn[nH]3)c1)C[C@@H]2c1ccccc1 | 620 nM |
| Cc1ccc2c(c1)N(CC(=O)NC(C)(C)C)C(=O)[C@H](NC(=O)Nc1cccc(C(=O)NS(=O)(=O)C(F)(F)F)c1)C[C@@H]2c1ccccc1 | 320 nM |
| CCS(=O)(=O)NC(=O)c1cccc(NC(=O)N[C@@H]2C[C@H](c3ccccc3)c3ccc(C)cc3N(CC(=O)NC(C)(C)C)C2=O)c1 | 1100 nM |
| COC(=O)c1cccc(NC(=O)N[C@@H]2C[C@H](c3ccccc3)c3ccc(C)cc3N(CC(=O)NC(C)(C)C)C2=O)c1 | 310 nM |
| Cc1ccc2c(c1)N(CC(=O)NC(C)(C)C)C(=O)[C@H](NC(=O)Nc1cccc(C(=O)NS(=O)(=O)Cc3ccccc3)c1)C[C@@H]2c1ccccc1 | 730 nM |
| Cc1ccc2c(c1)N(CC(=O)NC(C)(C)C)C(=O)[C@H](NC(=O)Nc1cccc(-c3nnn[nH]3)c1)C[C@@H]2CC1CCCCC1 | 220 nM |
| Cc1ccc2c(c1)N(CC(=O)NC(C)(C)C)C(=O)[C@H](NC(=O)Nc1cccc(C(=O)O)c1)C[C@@H]2C1CCCCC1 (stereo in doubt; 5k) | 2300 nM |
| Cc1ccc2c(c1)N(CC(=O)NC(C)(C)C)C(=O)[C@H](NC(=O)Nc1cccc(-c3nnn[nH]3)c1)C[C@@H]2C1CCCCC1 | 490 nM |
| Cc1ccc([C@H]2C[C@@H](NC(=O)Nc3cccc(-c4nn[nH]n4)c3)C(=O)N(CC(=O)NC(C)(C)C)c3cc(C)ccc32)cc1 | 600 nM |
| Cc1ccc2c(c1)N(CC(=O)NC(C)(C)C)C(=O)[C@H](NC(=O)Nc1cccc(-c3nnn[nH]3)c1)C[C@@H]2C(C)C | 250 nM |
| Cc1ccc2c(c1)N(CC(=O)NC(C)(C)C)C(=O)[C@H](NC(=O)Nc1cccc(C(=O)NS(=O)(=O)c3ccccc3)c1)C[C@@H]2c1ccccc1 | 1300 nM |
| Cc1ccc2c(c1)N(CC(=O)NC(C)(C)C)C(=O)[C@H](NC(=O)Nc1cccc(C(=O)O)c1)C[C@@H]2C1CCCCC1 (stereo in doubt; 2) | 1400 nM |
